From US9187470B2, “Anti-mucus drugs and uses therefor” (Washington University, priority 2012, dated 2015) come the findings set out here.

The structures appear in SMILES notation. Where two headings read alike, the source gives them in different places. Where only a bound is given, the exact number is not on record here.

Data set [1] relates to MUC5AC. Kind of data set: IL-13-induced MUC5AC production in primary-culture human tracheal epithelial cells (qPCR, cell-based ELISA). As to conditions: for IL-13-induced MUC5AC production: FIG. 6h. In general terms: Quantitative PCR measures a nucleic acid by following its amplification.
The subject of data set [2] is MUC5AC. The data set is described as follows: Doxycycline-induced MUC5AC mRNA and protein in NCI-H292-rtTA-hCLCA1 cells. The class given is cell-based, human. The following applies: doxycycline 7.5 μg/ml for 18 h.
The test system of another data set is CLCA1. Kind of data set: CLCA1 levels in IL-13-treated hTECs (qPCR). The class given is cell-based, human. As to conditions: IL-13 50 ng/ml, up to 21 d air-liquid interface.
The target in data set [3] is T1, MAPK13 (Homo sapiens (Human), UniProt O15264). Kind of data set: MAPK inhibitor assay: immobilized metal affinity polarization (IMAP) assay with activated MAPK13. The class given is biochemical. As to conditions: for MAPK13 inhibitory activity (in words): IMAP assay, FIG. 6f. How it is done: MAPK inhibitor assay. The MAPK13 blocking activity of test compounds was determined using an immobilized metal affinity polarization (IMAP) assay containing activated MAPK13, FITC-labeled substrate, and test compound. Full-length 6-His-tagged MAPK13 and constitutively active GST-MKK6 were prepared as described below. Activated MAPK13 was generated in 50 mM Hepes, 10 mM MgCl2 and 1 mM DTT, containing 1 μM MAPK13, 2 μM MKK6 and 50 μM ATP for 1 h at 25° C. MKK6 was removed by incubation with glutathione SEPHAROSE 4B beads (GE Healthcare Biosciences). […] IMAP assays were performed in 96-well non-treated half-area black plates or 384-well black plates (Corning Inc., Corning, N.Y.) in a final reaction volume of 20 μl using the linear phase of the rate kinetics. […] The reaction proceeded for 20 min at 25° C. in 10 mM Tris-HCl, 10 mM MgCl2, 0.1% BSA, 0.05% NaN3, 1 mM DT, pH 7.2 after which 60 μl of tri-valent metal nanoparticles containing IMAP binding reagent (Molecular Devices, Sunnyvale, Calif.) was added for 80 min at 25° C. The IMAP binding reagent was optimized at 1:600 (vol/vol) based on the number of acidic residues in the peptide substrate. Fluorescence polarization was measured with a Biotek Synergy 4 multimode plate reader (Biotek, Winooski, Vt.) with excitation at 485 nm and emission at 528 nm. The IC50 values for each compound were determined from the compound concentration versus fluorescence polarization (mP) plot using nonlinear curve fitting with GraphPad Prism software (Graphpad Software, La Jolla, Calif.).
MAPK purification for biochemical assays and crystallization. Full-length human MAPK13 (1-365) and MAPK13 crystallization construct (1-352) were cloned into pET28a as N-terminal 6-His-tagged constructs. […] A pET28a construct of λ-phosphatase was a gift from Dima Klenchin (University of Wisconsin, Madison, Wis.). All constructs were confirmed by sequencing and transformed into Rosetta2 (DE3) E. coli (EMD Millipore, Billerica, Mass.) and expressed as soluble proteins that were purified using the specific affinity tags followed by gel filtration chromatography. […] The final purified MAPK13 for crystallization was stored in buffer containing 20 mM Hepes pH 7.5, 150 mM NaCl, 10% glycerol, and 1 mM DTT.
In concert with this structural analysis, analogs for MAPK13 inhibitory activity were tested using an immobilized metal affinity polarization (IMAP) assay that detected fluorescence polarization as a function of remaining MAPK13 activity.

Data set [4] deals with T1, MAPK13. The data set is described as follows: MAPK13/small molecule binding assay (bio-layer interferometry, Octet). As to conditions: for t1/2: complex half-life determined using BLI; for slow-off binding kinetics: FIG. 6d,e. The text has this: MAPK purification for biochemical assays and crystallization. Full-length human MAPK13 (1-365) and MAPK13 crystallization construct (1-352) were cloned into pET28a as N-terminal 6-His-tagged constructs. A constitutively active mutant MKK6-GST fusion construct (GST-MKK6 Glu) was a gift from Peiqing Sun (Scripps, La Jolla, Calif.). A pET28a construct of λ-phosphatase was a gift from Dima Klenchin (University of Wisconsin, Madison, Wis.). All constructs were confirmed by sequencing and transformed into Rosetta2 (DE3) E. coli (EMD Millipore, Billerica, Mass.) and expressed as soluble proteins that were purified using the specific affinity tags followed by gel filtration chromatography. […] All buffers used during purification (lysis, column, and storage) of MAPK13 required addition of 10% glycerol and 1-5 mM reducing agent (either β-mercaptoethanol or DTT) to prevent precipitation of the recombinant protein. The final purified MAPK13 for crystallization was stored in buffer containing 20 mM Hepes pH 7.5, 150 mM NaCl, 10% glycerol, and 1 mM DTT.
MAPK13/small molecule binding assay. Kinetics of MAPK13 binding to small molecules was assessed using bio-layer interferometry with an Octet (ForteBio, Menlo Park, Calif.). Super-streptavidin-coated biosensors from ForteBio were used to capture biotinylated MAPK13 onto the surface of the sensor. After reaching baseline, sensors were moved to association step containing 2500, 1250, 625, 312.5, or 156.3 nM inhibitor for 300 s and then dissociated for 300 s. Curves were corrected by a double-referencing technique using both biotin-coated pins dipped into the experimental wells and a buffer-only reference. The running buffer consisted of 10 mM Hepes pH 7.5, 150 mM NaCl, 0.05% Tween, and 5% DMSO. Half-lives were calculated from dissociation constants determined from global kinetic analysis.
A general note: BLI is a label-free optical method that tracks binding on a fibre tip over time.

The mark [5] stands for this setting: lower part of Table 4, IMAP-based biochemical assay, read-out: MAPK13 IC50.
Setting [6] is: upper part of Table 4, 16-point inhibitor concentration-response curves, unit inferred, read-out: IC50 (IC50 values for MAPK13 inhibition).
Where [7] appears, read: primary-culture human airway epithelial cells.

T1 sequence (O15264 whole entry): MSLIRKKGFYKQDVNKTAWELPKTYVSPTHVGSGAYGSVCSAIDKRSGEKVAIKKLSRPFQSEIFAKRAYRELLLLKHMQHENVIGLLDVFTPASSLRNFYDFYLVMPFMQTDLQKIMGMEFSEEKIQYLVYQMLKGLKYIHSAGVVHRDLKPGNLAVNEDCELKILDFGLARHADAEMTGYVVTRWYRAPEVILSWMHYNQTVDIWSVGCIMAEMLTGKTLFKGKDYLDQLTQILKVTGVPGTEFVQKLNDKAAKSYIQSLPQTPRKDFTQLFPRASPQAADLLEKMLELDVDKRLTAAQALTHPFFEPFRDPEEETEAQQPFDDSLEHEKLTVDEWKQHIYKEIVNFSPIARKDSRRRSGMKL

With `Cc1ccc(-n2nc(C(C)(C)C)cc2NC(=O)Nc2ccc(OCCN3CCOCC3)c3ccccc23)cc1` [BIRB-796, BIRB-796 (Doramapimod)], the “IL-13-induced MUC5AC gene expression” value in the data set with MUC5AC [1] (hTECs, IL-13 50 ng/ml, up to 21 d air-liquid interface) is recorded as “markedly suppressed”. Moreover, the “doxycyline-induced MUC5AC mRNA and protein production” value in the data set on MUC5AC [2] was “inhibited”. For the same molecule, in the data set with CLCA1, the “corresponding CLCA1 levels / CLCA1 gene expression” value is given as “without affecting”.
`Cc1ccc(-n2nc(C(C)(C)C)cc2NC(=O)Nc2ccc3c(c2)CN(C(=O)C2CCOCC2)C3)cc1` [Analog 115, 1-[5-tert-butyl-2-(p-tolyl)pyrazol-3-yl]-3-[2-(tetrahydropyran-4-carbonyl)isoindolin-5-yl]urea]: on MAPK13 [3] (setting [5]), the half-maximal inhibitory concentration (IC50) was 8650 nM. Besides, the “Relative Dissociation kinetics” value at MAPK13 [4] (BLI) was “slow”. The molecule further showed a t1/2 on MAPK13 [4] of 3.4 min.
For `Cc1cn(-c2cccc(C(=O)Nc3ccc(Oc4ccncc4)cc3)c2)cn1` [Analog 117, 3-(4-methylimidazol-1-yl)-N-[4-(4-pyridyloxy)phenyl]benzamide], the “MAPK13 Inhibition Biochemical Potency” value on MAPK13 [3] (class symbols +++, ++, +, ~, legend not given) is “~”. Besides, the IC50 at MAPK13 [3] (setting [5]) stood at 10200 nM. The IC50 on MAPK13 [3] (setting [6]) worked out at 15800 nM. At MAPK13 [4], the slow-off binding kinetics entry was “did not” and the t1/2 turned out to be 0.0467 min.
For the molecule `Cc1ccc(-n2nc(C(C)(C)C)cc2NC(=O)Nc2ccc(Oc3ccncc3)cc2)cc1` [Compound 62], the “MAPK13 inhibitory activity (in words)” value at MAPK13 [3] was “most potent MAPK13 inhibition”. Moreover, the IC50 on MAPK13 [3] (setting [6]) is 280 nM; in the data set with MUC5AC [1] (IL-13-induced, primary-culture human airway epithelial cells, read-out: IC50 for blockade of mucus production) it was under 10 nM. For the same molecule, in the data set with MUC5AC [1] (setting [7]), the “IL-13-induced MUC5AC production” value is given as “markedly suppressed”.
In the case of `Cn1nc(C(C)(C)C)cc1NC(=O)Nc1ccc(Oc2ccncc2)cc1` [Compound 61], the “MAPK13 inhibitory activity (in words)” value at MAPK13 [3] is on record as “most potent MAPK13 inhibition”. Besides, the IC50 on MAPK13 [3] (setting [5]) came out at 82.7 nM. For the same molecule, the IC50 on MAPK13 [3] (setting [6]) came to 620 nM. Moreover, the “increase in complex half-life” value at MAPK13 [4] (DFG-out compound 61 compared with DFG-in compound 117 (FIG. 6E)) is reported as 40 fold. On MAPK13 [4], the slow-off binding kinetics entry is listed as “exhibited slow-off binding kinetics” and the t1/2 came to 1.85 min. Further, the “IL-13-induced MUC5AC production” value in the data set with MUC5AC [1] (setting [7]) was “markedly suppressed”.
Turning to `Cc1ccc(-n2nc(C(C)(C)C)cc2NC(=O)Nc2ncc(CCN3CCOCC3)s2)cc1` [Analog 89, 1-[5-tert-butyl-2-(p-tolyl)pyrazol-3-yl]-3-[5-(2-morpholinoethyl)thiazol-2-yl]urea], the IC50 at MAPK13 [3] (setting [5]) was found to be 27.5 nM. Further, the t1/2 at MAPK13 [4] turned out to be 20 min.
Molecule `O=C(Nc1ccc(Oc2ccncc2)cc1)c1ccnc(N2CCOCC2)c1` [Analog 124, 2-morpholino-N-[4-(4-pyridyloxy)phenyl]pyridine-4-carboxamide] yielded a t1/2 at MAPK13 [4] of 0.02 min.
On to `Cn1c(NC[C@@H](N)Cc2ccccc2)nc(-c2ccncc2)c(-c2ccc3ccccc3c2)c1=O` [AMG-548, reference compound], for which the “MAPK13 inhibitory activity (in words)” value on MAPK13 [3] is reported as “weak inhibitory activity”.

What is called IC50 is the concentration needed to halve the response being measured.
